Laboratory results: patent US20240366611A1, “METHODS OF TREATING A DISEASE OR DISORDER” (Ascentage Pharma (Suzhou) Co., Ltd., priority 2021, published 2024)

Test system: TNBS induced IBD in Balb/c mice
Assay: TNBS induced inflammatory bowel disease (IBD) model
Assay type: in vivo
Description: Female Balb/c mice (8 weeks old) were obtained from Beijing Vital River Laboratory Animal Co. Ltd. Animals, and then housed and handled in a temperature-controlled environment with a 12-h light/12-h dark cycle. A total of 30 mice were assigned to 3 groups by randomization based on body weight.
On Day 0, the mice weighing 18-20 g were anesthetized with […] (Easycheck, M2910), and then further intra-rectally injected 100 μL 1.5% TNBS solution (final concentration in 50% ethanol) in the vehicle group and treatment groups. For the Sham group, the mice were intra-rectally injected with 50% ethanol at the same volume.
Mice in Group 1 and Group 2 were treated with vehicle for 8 days (po, qd, from day −1 to day 6). Mice in Group 3 were treated with 90 mg/kg Cpd. 73 for 8 days (po, qd, from day −1 to day 6). The protocols and procedures involving the care and use of animals were approved by the Institutional Animal Care and Use Committee (IACUC) at WuxiApptec (Shanghai, China).
Clinical signs of IBD were assessed every day based on the score of disease activity index (DAI) which was evaluated from three parameters using a scoring system from 0 to 4: stool consistency (0, normal stool; 1, soft but still formed stool; 2, soft and not formed stool; 3, very soft and wet stool; 4, watery diarrhea), bleeding score (0, negative hemoccult; 1, weak positive hemoccult; 2, positive hemoccult; 3, blood trace in stool visible; 4, gross rectal bleeding) and body weight loss (0, no body weight loos; 1, 1-5% body weight loss; 2, 6-10% body weight loss; 3, 11-20% body weight loss; 4, >20% body weight loss).
At the end of experiment (day 7), the animals were euthanized, dissected and the entire colon was quickly removed and gently cleared of feces.
At the end of experiment, the animals were euthanized, and blood was collected immediately by the heart punctures and used for whole blood cell analysis.
At the end of the study (day 7), the cell suspensions from sham control, model control and Cpd. 73 treatment groups were obtained from mesenteric lymph nodes (MLN). Cells were stained with the following florescence-labelled antibodies: APC-Cy7-conjugated anti-mouse CD45, BV510-conjugated anti-mouse CD3e, AF700-conjugated anti-mouse CD8a, BUV395-conjugated anti-mouse CD4, BV421-conjugated anti-mouse CD25, FITC-conjugated anti-mouse Foxp3, BV650-conjugated anti-mouse IFN-γ, APC-conjugated anti-mouse B220, BV395-conjugated anti-mouse CD3e, BV605-conjugated anti-mouse CD11b, BB700-conjugated anti-mouse CD11c, AF488-conjugated anti-mouse MHCII, BV421-conjugated anti-mouse NK1.1, BV510-conjugated anti-mouse Ly6G, PE-Cy7-conjugated anti-mouse CD107a and PE-CF594-conjugated anti-mouse F4/80. All cells were primarily gated on single and live lymphocytes based on forward scatter (FCS), side scatter (SSC) and live/dead staining buffer. Samples were analyzed on a flow cytometer (BD LSRFortessa) to count the percentage of each subtype of lymphocytes.
At the end of the study (day 7), all the animals were sacrificed by CO2. The colon was Swiss-rolled and fixed with neutralized PFA followed by H&E staining. After that, the pathologists from WuXi clinical pathological analysis platform, who were blinded to animal ID, reviewed the H&E staining and scored. The pathological scoring standards were as follows: crypt architecture (normal, 0; severe crypt distortion with loss of entire crypts, 3), degree of inflammatory cell infiltration (normal, 0; dense inflammatory infiltrate, 3), muscle thickening (normal, 0; marked muscle thickening present, 3), goblet cell depletion (absent, 0; present, 1) and crypt abscess (absent, 0; present, 1).
The fixed colon was stained with Masson's Trichrome to assess the collagen fibers in colon tissue. The Masson's Trichrome staining procedures was followed the standard protocol. After that, the pathological doctors from WuXi clinical pathological analysis platform reviewed the whole slices and scored blinded with animal information. […]

[1] = 90 mg/kg po qd day −1 to day 6, end of experiment, vs vehicle
[2] = 90 mg/kg po qd day −1 to day 6, vs vehicle
[3] = 90 mg/kg, day 7, flow cytometry, vs vehicle control

In the case of CC(C)N1Cc2cc(C(F)(F)F)ncc2-c2cnc(NCc3c(F)ccc4c3CCO4)n3cnc(c23)C1=O [Cpd. 73, 12-(((5-fluoro-2,3-dihydrobenzofuran-4-yl)methyl)amino)-4-isopropyl-7-(trifluoromethyl)-4,5-dihydro-3H-2,4,8,11,12a-pentaazabenzo[4,5]cycloocta[1,2,3-cd]inden-3-one], the colon length (90 mg/kg po qd day −1 to day 6, day 7, vehicle 6.26±0.17 cm) is reported as 8.79±0.22 cm, the “pathological score (H&E, colon)” value (90 mg/kg po qd day −1 to day 6, day 7, vehicle 10.33±0.35) is reported as 1.70±0.37 and the colon weight (90 mg/kg po qd day −1 to day 6, day 7, vehicle 336.8±26.68 mg) is reported as 213.8 ± 6.08 mg. The “anemia (red blood cells and hemoglobin in peripheral blood)” value (90 mg/kg po qd day −1 to day 6, end of experiment) was “improved”, the “cell number of monocytes in peripheral blood” value [1] was “significantly reduced” and the “cell number of neutrophils in peripheral blood” value [1] was “significantly reduced”. The “fibrosis score (Masson's Trichrome, colon)” value (90 mg/kg po qd day −1 to day 6, vehicle 4.33±0.30) was 1.10±0.17, the DAI score [2] was “significantly reducing” and the body weight loss [2] was “improving”. For the same compound, the “percentage of IFN-γ secreting CD4+ T cells (Th1 cells) in MLN” value [3] was “significantly reduced”, the “percentage of NK cells in MLN” value [3] was “significantly reduced” and the “percentage of activated NK cells in MLN” value [3] was “significantly reduced”. The “percentage of macrophages in MLN” value [3] was “significantly reduced” and the “percentage of neutrophils in mesenteric lymph nodes (MLN)” value [3] was “significantly reduced”.
